Data: patent US20250382274A1, “COMPOSITIONS AND METHODS FOR THE TREATMENT OF PARKINSON'S AND GAUCHER DISEASE” (CHILDREN'S HOSPITAL MEDICAL CENTER, priority 2024, published 2025)

Tests used:
[1] = biological target: T1, GCase (purified enzyme, Velaglucerase alfa, VPRIV) (Homo sapiens, UniProt P04062); test: GCase AC50 enzyme activity assay; type: biochemical; details: pH 5.6, 4-MuGlu substrate, compounds 0-40 μM
T1 construct: purchased Shire Human Genetic Therapies, Cambridge, MA
T1 sequence (P04062 40-536): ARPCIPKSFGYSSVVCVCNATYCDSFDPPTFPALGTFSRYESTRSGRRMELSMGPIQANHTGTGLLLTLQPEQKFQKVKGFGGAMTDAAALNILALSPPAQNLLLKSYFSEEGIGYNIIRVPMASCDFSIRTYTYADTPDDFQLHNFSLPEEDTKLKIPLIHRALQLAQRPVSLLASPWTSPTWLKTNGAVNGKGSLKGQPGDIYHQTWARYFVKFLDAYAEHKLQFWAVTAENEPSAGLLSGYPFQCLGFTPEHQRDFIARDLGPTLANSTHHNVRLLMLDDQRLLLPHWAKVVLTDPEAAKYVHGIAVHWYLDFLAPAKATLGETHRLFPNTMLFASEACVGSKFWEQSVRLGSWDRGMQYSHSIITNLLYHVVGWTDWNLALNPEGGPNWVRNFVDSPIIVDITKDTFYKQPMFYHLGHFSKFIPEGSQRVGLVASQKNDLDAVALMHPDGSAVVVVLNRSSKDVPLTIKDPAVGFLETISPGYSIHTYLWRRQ
Description: An in vitro enzyme assay was performed through a dose response curve of Compounds (0-40 μM) with purified enzyme (Velaglucerase alfa, VPRIV®, Shire Human Genetic Therapies, Cambridge, MA) in citric phosphate [0.025 mM] buffer (pH 5.6) where 4-MuGlu [4 mM] was the substrate. Compounds were pre-incubated with the enzyme for 40 minutes at room temperature prior to substrate addition, and then incubated at 37° C. for 1 hour. AC50 represents the concentration of a Compound that produces 50% of its maximal response in the in vitro GCase activity assay.
(§1) GCase activities were determined fluorometrically with 4-MuGlu. The relative fluorescence unit (RFU) of 4-MuGlu standard curve is generated with the plate reader (M5, Molecular Devise) as 1 n mole=56500 RFU. The human mutant Gaucher fibroblasts were purchased from Coriell Institute (Camden, NJ): N370/ΔGG (Cat #: GM00852) and L444P/L444P (cat #: GM00877)

[2] = biological target: T2, GCase in healthy human fibroblasts (Homo sapiens, UniProt P04062); test: EC50 cell-based assay for GCase, healthy human fibroblasts (GCase cell); details: 5 days compound treatment (0-20 μM)
T2 construct: Healthy human fibroblasts (GCase cell); endogenous in cells; host or cells: healthy human fibroblasts
T2 sequence (P04062 40-536): T1 sequence (P04062 40-536)
Description: In cell assays, GCase activity measurements were carried out on harvested cell pellets on the 5th day of Compound treatment. Healthy human fibroblasts (GCase cell), mutant N370/ΔGG (GCase N370S) or L444P/L444P (GCase L444P) were incubated with the Compound (0-20 μM) for 5 days with 15% fetal bovine serum (FBS) in Dulbecco's Modified Eagle Medium (DMEM) in 100 mm culture dishes. Fresh Medium with Compound were replaced every other day. On the 5th day of Compound treatment, harvested cell pellets were lysed with 1% Na-taurocholate (Tc) and 1% Triton X-100 (Tx), and mixed with the reaction buffer which contained 0.025 mM Citric phosphate buffer (pH 5.6), 0.25% Tc/Tx and 4 mM 4-MuGlu, then incubated at 37° C. for 1 hour. EC50 represents the concentration of a Compound that produces 50% of its maximal response in the cell-based GCase activity assay.
as §1

AC50 [1] [µM]	EC50 [2] [µM]	SMILES
< 10	< 10	COc1ccc(NC(=O)C(C)(C)Oc2ccc(F)cc2C(NCC2CCO2)C(F)(F)F)cc1 (centres unmarked) [Compound 46, 2-(4-fluoro-2-(2,2,2-trifluoro-1-((oxetan-2-ylmethyl)amino)ethyl)phenoxy)-N-(4-methoxyphenyl)-2-methylpropanamide]
< 10	< 10	Cc1cc(NC(=O)c2nc3cc(F)cc(C(=O)NCC4CCO4)c3o2)ccn1 (centres unmarked) [Compound 20, 5-fluoro-N2-(2-methylpyridin-4-yl)-N7-((oxetan-2-yl)methyl)benzo[d]oxazole-2,7-dicarboxamide]
< 10	< 10	COc1ccc(NC(=O)Cc2nnc(NCC3CCCO3)c3ccccc23)cc1 (centres unmarked) [Compound 11, 2-(1-((tetrahydrofuran-2-yl)methylamino)phthalazin-4-yl)-N-(4-methoxyphenyl)acetamide]
< 10	< 10	CC(C)(Oc1ccccc1C(=O)NCC1CCCO1)C(=O)NC1CCCCC1 (centres unmarked) [Compound 36, 2-[2-(cyclohexylamino)-1,1-dimethyl-2-oxo-ethoxy]-N-(tetrahydrofuran-2-ylmethyl)benzamide]
< 10	< 10	O=C(NCC1CCO1)c1cccc2c1CN(C(=O)NC1CCC(F)(F)CC1)C2 (centres unmarked) [Compound 41, N2-(4,4-difluorocyclohexyl)-N4-(oxetan-2-ylmethyl)isoindoline-2,4-dicarboxamide]
10 to 100	–	O=C(NC1CCN(CC(F)(F)F)CC1)c1nc2cc(F)cc(C(=O)NCC3CCO3)c2o1 (centres unmarked) [Compound 29, 5-fluoro-N7-(oxetan-2-ylmethyl)-N2-(1-(2,2,2-trifluoroethyl)piperidin-4-yl)benzo[d]oxazole-2,7-dicarboxamide]
< 10	< 10	O=C(Nc1ccc(OC(F)(F)F)cc1)c1nc2cc(F)cc(C(=O)NCC3CC(F)CO3)c2o1 (centres unmarked) [Compound 49, 5-fluoro-N7-[(4-fluorotetrahydrofuran-2-yl)methyl]-N2-[4-(trifluoromethoxy)phenyl]-1,3-benzoxazole-2,7-dicarboxamide]
< 10	< 10	CC(C)(Oc1ccccc1C(=O)NCC1CCO1)C(=O)NC1CCN(CC(F)F)CC1 (centres unmarked) [Compound 17, 2-[2-[[1-(2,2-difluoroethyl)-4-piperidyl]amino]-1,1-dimethyl-2-oxo-ethoxy]-N-(oxetan-2-ylmethyl)benzamide]
< 10	< 10	COc1ccc(NC(=O)C(C)(C)Oc2ccccc2C(=O)N2CCOCC2)cc1 [Compound 7]
< 10	< 10	CN(CC1CCO1)C(=O)c1cc(F)ccc1OC(C)(C)C(=O)NC1CCOCC1 (centres unmarked) [Compound 23, 2-(2-(tetrahydro-2H-pyran-4-ylcarbamoyl)propan-2-yloxy)-5-fluoro-N-methyl-N-((oxetan-2-yl)methyl)benzamide]
< 10	< 10	COc1ccc(NC(=O)N2Cc3cccc(C(=O)NCC4CCO4)c3C2)cc1Cl (centres unmarked) [Compound 42, N2-(3-chloro-4-methoxyphenyl)-N4-(oxetan-2-ylmethyl) isoindoline-2,4-dicarboxamide]
< 10	< 10	O=C(Nc1ccc(Cl)cc1)c1nc2cc(F)cc(C(=O)NCC3CCO3)c2o1 (centres unmarked) [Compound 21, N2-(4-chlorophenyl)-5-fluoro-N7-((oxetan-2-yl)methyl)benzo[d]oxazole-2,7-dicarboxamide]
< 10	–	CC(C)(Oc1ccc(F)cc1C(=O)NCC1CCO1)C(=O)Nc1ccc(OC(F)F)cc1 (centres unmarked) [Compound 31, 2-((1-((4-(difluoromethoxy)phenyl)amino)-2-methyl-1-oxopropan-2-yl)oxy)-5-fluoro-N-(oxetan-2-ylmethyl)benzamide]
< 10	< 10	COc1ccc(NC(=O)c2nc3cc(F)cc(C(=O)NCC4CCO4)c3o2)c(Cl)c1 (centres unmarked) [Compound 45, N2-(2-chloro-4-methoxyphenyl)-5-fluoro-N7-(oxetan-2-ylmethyl)benzo[d]oxazole-2,7-dicarboxamide]
< 10	< 10	CC(C)(Oc1ccccc1C(=O)NCC1CCCO1)C(=O)NC1CCOCC1 (centres unmarked) [Compound 35, 2-[1,1-dimethyl-2-oxo-2-(tetrahydropyran-4-ylamino)ethoxy]-N-(tetrahydrofuran-2-ylmethyl)benzamide]
< 10	–	COc1ccc(NC(=O)c2nc3c(F)ccc(C(=O)NCC4CCO4)c3o2)cc1 (centres unmarked) [Compound 15, 4-fluoro-N2-(4-methoxyphenyl)-N7-(oxetan-2-ylmethyl)-1,3-benzoxazole-2,7-dicarboxamide]
< 10	< 10	CC(C)(Oc1ccc(F)cc1C(=O)NCC1CCO1)C(=O)NC1CCC(F)(F)CC1 (centres unmarked) [Compound 38, 2-[2-[(4,4-difluorocyclohexyl)amino]-1,1-dimethyl-2-oxo-ethoxy]-5-fluoro-N-(oxetan-2-ylmethyl)benzamide]
< 10	< 10	COc1ccc(NC(=O)c2cc3cccc(C(=O)NCC4CCCO4)c3o2)cc1 (centres unmarked) [Compound 5, N7-((tetrahydrofuran-2-yl)methyl)-N2-(4-methoxyphenyl)benzofuran-2,7-dicarboxamide]
< 10	–	O=C(Nc1ccc(CN2CCOCC2)cc1)c1nc2cccc(C(=O)NCC3CCO3)c2o1 (centres unmarked) [Compound 16, N2-[4-(morpholinomethyl)phenyl]-N7-(oxetan-2-ylmethyl)-1,3-benzoxazole-2,7-dicarboxamide]
< 10	–	COc1ccc(NC(=O)c2nc3cc(F)cc(C(=O)NCC4CCO4)c3o2)cc1F (centres unmarked) [Compound 14, 5-fluoro-N2-(3-fluoro-4-methoxy-phenyl)-N7-(oxetan-2-ylmethyl)-1,3-benzoxazole-2,7-dicarboxamide]
< 10	< 10	CC(C)(Oc1ccccc1C(=O)NCC1CCO1)C(=O)NC1CCN(C2COC2)CC1 (centres unmarked) [Compound 18, 2-[1,1-dimethyl-2-[[1-(oxetan-3-yl)-4-piperidyl]amino]-2-oxo-ethoxy]-N-(oxetan-2-ylmethyl)benzamide]
< 10	< 10	CN(C)Cc1ccc(NC(=O)C(C)(C)Oc2ccccc2C(=O)NCC2CCCO2)cc1 (centres unmarked) [Compound 34, 2-(2-(4-((dimethylamino)methyl)phenylcarbamoyl)propan-2-yloxy)-N-((tetrahydrofuran-2-yl)methyl)benzamide]
< 10	< 10	CN(C)Cc1ccc(NC(=O)c2nc3cccc(C(=O)NCC4CCCO4)c3o2)cc1 (centres unmarked) [Compound 9, N2-(4-((dimethylamino)methyl)phenyl)-N7-((tetrahydrofuran-2-yl)methyl)benzo[d]oxazole-2,7-dicarboxamide]
< 10	< 10	CNc1ccc(NC(=O)c2nc3cc(F)cc(C(=O)NCC4CCO4)c3o2)cc1 (centres unmarked) [Compound 44, 5-fluoro-N2-(4-(methylamino)phenyl)-N7-(oxetan-2-ylmethyl)benzo[d]oxazole-2,7-dicarboxamide]
< 10	< 10	CN1CCC(NC(=O)C(C)(C)Oc2ccc(F)cc2C(=O)NCC2CCO2)C(F)(F)C1 (centres unmarked) [Compound 24, 2-(2-(3,3-difluoro-1-methylpiperidin-4-ylcarbamoyl)propan-2-yloxy)-5-fluoro-N-((oxetan-2-yl)methyl)benzamide]
< 10	< 10	O=C(NC1CCOCC1)c1nc2cc(F)cc(C(=O)NCC3CCO3)c2o1 (centres unmarked) [Compound 19, 5-fluoro-N2-(tetrahydro-2H-pyran-4-yl)-N7-((oxetan-2-yl)methyl)benzo[d]oxazole-2,7-dicarboxamide]
